Source: US11384172B2, “Polymer, antimicrobial agent, disinfectant, antimicrobial material, disinfectant material, antimicrobial method, and disinfecting method” (JSR CORPORATION, priority 2015, dated 2022)

Experiments:
Test in all cases: Antimicrobial and disinfecting properties test (liquid medium dilution series, visual turbidity)
Type in all cases: cell-based
Conditions in all cases: 37° C., 16 hours
[1] = test system: E. coli (drug sensitive strain, DH5α)
Method: (§1) Into 500 mL of hexane, 10 g of the polymer obtained in each of the above Synthesis Examples was added dropwise over 2 hours, and then vacuum drying was performed at 40° C. for 24 hours. The powder thus obtained was used for a test.
(§2) 30.4 g of a medium (Mueller Hinton II) was weighed out, and dissolved in 800 mL of sterile water, and the resultant mixture was subjected to an autoclave treatment at 121° C. and 2 atm for 15 minutes.
(§3) Each of the bacteria of the following (1) to (8) was suspended in 1 mL of the liquid medium obtained in the above “preparation of liquid medium”, OD600 was measured, and a liquid medium was added so that the amount of bacteria is 1×10^8 cfu/mL to prepare each of the bacterial liquids.
(1) E. coli (drug sensitive strain, DH5α)
(§4) A polymer (A-1) and water were mixed to prepare 10 mg/mL of a polymer aqueous solution. […]
(§5) The turbidity of each of the wells was visually discriminated and the growing state of the bacteria was confirmed. The concentrations of the dilution series, at which it was visually determined that the antimicrobial action and disinfecting action were performed without cloudiness, are shown in Table 3.
(§6) The antimicrobial and the disinfecting properties were evaluated in a similar manner as in Example 1 except that each of the compounds shown in Table 3 was used in place of the polymer (A-1) in Example 1. […]

[2] = test system: S. aureus (drug sensitive strain, ATCC29213)
Method: as §1, §2, §3
(2) S. aureus (drug sensitive strain, ATCC29213)
as §4, §5, §6

[3] = test system: E. coli (NDM-1 producing strain)
Method: as §1, §2, §3
(3) E. coli (NDM-1 producing strain)
as §4, §5, §6

[4] = test system: E. coli (IMP-1 producing strain, ST131)
Method: as §1, §2, §3
(4) E. coli (IMP-1 producing strain, ST131)
as §4, §5, §6

[5] = test system: Klebsiella pneumoniae (KPC-2 producing strain, ST258)
Method: (5) Klebsiella pneumoniae (KPC-2 producing strain, ST258)
Into 897.6 μL of the prepared liquid medium, 102.4 μL of the above-described polymer aqueous solution was added so that the concentration of the polymer is 1024 μg/mL. This solution was diluted 2 times in wells of a 96-well plate to prepare a dilution series of 1024 μg/mL to 0.015625 μg/mL. Next, 5 μL of a bacterial liquid was added to each of the wells and incubated at 37° C. for 16 hours.

[6] = test system: A. baumannii (OXA-23 producing strain, ST2)
Method: as §1, §2, §3
(6) A. baumannii (OXA-23 producing strain, ST2)
as §4, §5, §6

[7] = test system: Pseudomonas aeruginosa (MP-1 producing strain, ST235)
Method: as §1, §2, §3
(7) Pseudomonas aeruginosa (MP-1 producing strain, ST235)
as §4, §5, §6

[8] = test system: MRSA (S. aureus methicillin-resistant strain)
Method: as §1, §2, §3
(8) MRSA (S. aureus methicillin-resistant strain)
as §4, §5, §6

Measured: concentration of the dilution series at which antimicrobial and disinfecting action was visually determined without cloudiness

N=C(N)NC(N)=Nc1ccccc1 [Phenyl biguanide, phenyl biguanide]
1024 µg/mL: [3] | [4] | [6]
>1024 µg/mL: all other assays above
